Laboratory results taken from US6114310A, “Efflux pump inhibitors” (priority 1998, dated 2000).

Tested on: Pseudomonas aeruginosa PAM1001
Assay: microbe, parasite or virus in culture
Format: cell-based
Protocol: The activity of efflux pump inhibitors (EPI) in combination with fluoroquinolones, such as levofloxacin, is assessed by the checkerboard assay (Antimicrobial Combinations. In Antibiotics in Laboratory Medicine, Ed. Victor Lorian, M. D., Fourth edition, 1996, pp 333-338) using broth microdilution method performed as recommended by the NCCLS (National Committee for Clinical Laboratory Standards (NCCLS). 1997. Methods for Dilution of Antimicrobial Susceptibility Tests for Bacteria That Grow Aerobically--Fourth Edition; Approved Standard. NCCLS Document M7-A4, Vol 17 No.2). The test organism used is Pseudomonas aeruginosa PAM1001.
In this assay, multiple dilutions of two drugs, namely the EPI and levofloxacin, are being tested, alone and in combination, at concentrations equal to, above and below their respective minimal inhibitory concentrations (MICs).
Stock solutions are further diluted, according to the needs of a particular assay, in Mueller Hinton Broth (MHB). Stock solution can be stored at -80° C. Quinolones are solubilized according to the instructions of the manufacturers, at a concentration of 1 mg/ml. They are then further diluted in MHB. Stock solution can be stored at -80° C.
The checkerboard assay is performed in microtiter plates. Levofloxacin is diluted in the x axis, each column containing a single concentration of levofloxacin. The EPI is diluted in the y axis, each row containing an equal concentration of EPI. The result of these manipulations is that each well of the microtiter plate contains a unique combination of concentrations of the two agents. Each EPI are tested independently.
The assay is performed in MHB with a final bacterial inoculum of 5×10^5 CFU/ml (from an early-log phase culture). Microtiter plates are incubated during 20 h at 35° C. and are read using a microtiterplate reader (Molecular Devices) at 650 nm as well as visual observation using a microtiterplate reading mirror.

[1] = Table 1, EPI Conc. μg/ml (number not given; column between 10 and 40 μg/ml)
[2] = Table 2, EPI Conc. μg/ml (number not given; column between 10 and 40 μg/ml)
[3] = Table 3, EPI Conc. μg/ml (number not given; column between 10 and 40 μg/ml)
[4] = Table 4, EPI Conc. μg/ml (number not given; column between 10 and 40 μg/ml)

Row | Substance | Levofloxacin MIC Against P. aeruginosa PAM1001 in Presence of Efflux Pump Inhibitor (EPI), Minimum Inhibitory Concentration (Table 1, EPI Conc. 0 μg/ml) | Levofloxacin MIC Against P. aeruginosa PAM1001 in Presence of Efflux Pump Inhibitor (EPI), Minimum Inhibitory Concentration (Table 1, EPI Conc. 0.625 μg/ml) | Levofloxacin MIC Against P. aeruginosa PAM1001 in Presence of Efflux Pump Inhibitor (EPI), Minimum Inhibitory Concentration (Table 1, EPI Conc. 5 μg/ml) | Levofloxacin MIC Against P. aeruginosa PAM1001 in Presence of Efflux Pump Inhibitor (EPI), Minimum Inhibitory Concentration (Table 1, EPI Conc. 10 μg/ml) | Levofloxacin MIC Against P. aeruginosa PAM1001 in Presence of Efflux Pump Inhibitor (EPI), Minimum Inhibitory Concentration (Table 1, EPI Conc. 40 μg/ml) | Levofloxacin MIC Against P. aeruginosa PAM1001 in Presence of Efflux Pump Inhibitor (EPI), Minimum Inhibitory Concentration [1] | Levofloxacin MIC Against P. aeruginosa PAM1001 in Presence of Efflux Pump Inhibitor (EPI), Minimum Inhibitory Concentration (Table 2, EPI Conc. 0 μg/ml) | Levofloxacin MIC Against P. aeruginosa PAM1001 in Presence of Efflux Pump Inhibitor (EPI), Minimum Inhibitory Concentration (Table 2, EPI Conc. 0.625 μg/ml) | Levofloxacin MIC Against P. aeruginosa PAM1001 in Presence of Efflux Pump Inhibitor (EPI), Minimum Inhibitory Concentration (Table 2, EPI Conc. 5 μg/ml) | Levofloxacin MIC Against P. aeruginosa PAM1001 in Presence of Efflux Pump Inhibitor (EPI), Minimum Inhibitory Concentration (Table 2, EPI Conc. 10 μg/ml) | Levofloxacin MIC Against P. aeruginosa PAM1001 in Presence of Efflux Pump Inhibitor (EPI), Minimum Inhibitory Concentration (Table 2, EPI Conc. 40 μg/ml) | Levofloxacin MIC Against P. aeruginosa PAM1001 in Presence of Efflux Pump Inhibitor (EPI), Minimum Inhibitory Concentration [2] | Levofloxacin MIC Against P. aeruginosa PAM1001 in Presence of Efflux Pump Inhibitor (EPI), Minimum Inhibitory Concentration (Table 3, EPI Conc. 0 μg/ml) | Levofloxacin MIC Against P. aeruginosa PAM1001 in Presence of Efflux Pump Inhibitor (EPI), Minimum Inhibitory Concentration (Table 3, EPI Conc. 0.625 μg/ml) | Levofloxacin MIC Against P. aeruginosa PAM1001 in Presence of Efflux Pump Inhibitor (EPI), Minimum Inhibitory Concentration (Table 3, EPI Conc. 5 μg/ml) | Levofloxacin MIC Against P. aeruginosa PAM1001 in Presence of Efflux Pump Inhibitor (EPI), Minimum Inhibitory Concentration (Table 3, EPI Conc. 10 μg/ml) | Levofloxacin MIC Against P. aeruginosa PAM1001 in Presence of Efflux Pump Inhibitor (EPI), Minimum Inhibitory Concentration (Table 3, EPI Conc. 40 μg/ml) | Levofloxacin MIC Against P. aeruginosa PAM1001 in Presence of Efflux Pump Inhibitor (EPI), Minimum Inhibitory Concentration [3] | Levofloxacin MIC Against P. aeruginosa PAM1001 in Presence of Efflux Pump Inhibitor (EPI), Minimum Inhibitory Concentration (Table 4, EPI Conc. 0 μg/ml) | Levofloxacin MIC Against P. aeruginosa PAM1001 in Presence of Efflux Pump Inhibitor (EPI), Minimum Inhibitory Concentration (Table 4, EPI Conc. 0.625 μg/ml) | further results
1 | D-Ornithyl-β-(N-4-methylphenethyl)alanine quinoline-3-amide [Compound 32 (Table 3)] | 4 µg/mL | 4 µg/mL | 1 µg/mL | 0.25 µg/mL | 0.25 µg/mL | 0.25 µg/mL | 4 µg/mL | 4 µg/mL | 2 µg/mL | 0.50 µg/mL | 0.06 µg/mL | 0.50 µg/mL | 4 µg/mL | 4 µg/mL | 0.25 µg/mL | 0.06 µg/mL | 0.015 µg/mL | 0.03 µg/mL | 4 µg/mL | 4 µg/mL | Levofloxacin MIC Against P. aeruginosa PAM1001 in Presence of Efflux Pump Inhibitor (EPI), Minimum Inhibitory Concentration (Table 2, EPI Conc. […]): 4 µg/mL; Levofloxacin MIC Against P. aeruginosa PAM1001 in Presence of Efflux Pump Inhibitor (EPI), Minimum Inhibitory Concentration (Table 4, EPI Conc. 5 μg/ml): 1 µg/mL; Levofloxacin MIC Against P. aeruginosa PAM1001 in Presence of Efflux Pump Inhibitor (EPI), Minimum Inhibitory Concentration (Table 4, EPI Conc. 10 μg/ml): 0.06 µg/mL; Levofloxacin MIC Against P. aeruginosa PAM1001 in Presence of Efflux Pump Inhibitor (EPI), Minimum Inhibitory Concentration (Table 4, EPI Conc. 40 μg/ml): 0.06 µg/mL; Levofloxacin MIC Against P. aeruginosa PAM1001 in Presence of Efflux Pump Inhibitor (EPI), Minimum Inhibitory Concentration [4]: 0.06 µg/mL
2 | D-Lysyl-β-N-(Cyclopropylmethyl)alanine Quinoline-3-amide Trifluoroacetate [Example 27] | 4 µg/mL | 4 µg/mL | 0.125 µg/mL | 0.125 µg/mL | 0.06 µg/mL | 0.125 µg/mL | 4 µg/mL | 4 µg/mL | 2 µg/mL | 2 µg/mL | 2 µg/mL | 2 µg/mL | 4 µg/mL | 4 µg/mL | 0.06 µg/mL | 0.03 µg/mL | 0.03 µg/mL | 0.03 µg/mL | 4 µg/mL | 4 µg/mL | Levofloxacin MIC Against P. aeruginosa PAM1001 in Presence of Efflux Pump Inhibitor (EPI), Minimum Inhibitory Concentration (Table 4, EPI Conc. 5 μg/ml): 2 µg/mL; Levofloxacin MIC Against P. aeruginosa PAM1001 in Presence of Efflux Pump Inhibitor (EPI), Minimum Inhibitory Concentration (Table 4, EPI Conc. 10 μg/ml): 2 µg/mL; Levofloxacin MIC Against P. aeruginosa PAM1001 in Presence of Efflux Pump Inhibitor (EPI), Minimum Inhibitory Concentration (Table 4, EPI Conc. 40 μg/ml): 1 µg/mL; Levofloxacin MIC Against P. aeruginosa PAM1001 in Presence of Efflux Pump Inhibitor (EPI), Minimum Inhibitory Concentration (Table 4, EPI Conc. […]): 4 µg/mL; Levofloxacin MIC Against P. aeruginosa PAM1001 in Presence of Efflux Pump Inhibitor (EPI), Minimum Inhibitory Concentration [4]: 1 µg/mL
3 | D-Ornithyl-β-(N-phenylpropyl)alanine quinoline-3-amide [Compound 22 (Table 3)] | 4 µg/mL | 4 µg/mL | 2 µg/mL | 1 µg/mL | 0.06 µg/mL | 0.50 µg/mL | 4 µg/mL | 4 µg/mL | 2 µg/mL | 1 µg/mL | 0.06 µg/mL | 0.125 µg/mL | 4 µg/mL | 4 µg/mL | 1 µg/mL | 0.50 µg/mL | 0.015 µg/mL | 0.25 µg/mL | 4 µg/mL | 4 µg/mL | Levofloxacin MIC Against P. aeruginosa PAM1001 in Presence of Efflux Pump Inhibitor (EPI), Minimum Inhibitory Concentration (Table 1, EPI Conc. […]): 4 µg/mL; Levofloxacin MIC Against P. aeruginosa PAM1001 in Presence of Efflux Pump Inhibitor (EPI), Minimum Inhibitory Concentration (Table 2, EPI Conc. […]): 4 µg/mL; Levofloxacin MIC Against P. aeruginosa PAM1001 in Presence of Efflux Pump Inhibitor (EPI), Minimum Inhibitory Concentration (Table 4, EPI Conc. 5 μg/ml): 1 µg/mL; Levofloxacin MIC Against P. aeruginosa PAM1001 in Presence of Efflux Pump Inhibitor (EPI), Minimum Inhibitory Concentration (Table 4, EPI Conc. 10 μg/ml): 0.125 µg/mL; Levofloxacin MIC Against P. aeruginosa PAM1001 in Presence of Efflux Pump Inhibitor (EPI), Minimum Inhibitory Concentration (Table 4, EPI Conc. 40 μg/ml): 0.125 µg/mL; Levofloxacin MIC Against P. aeruginosa PAM1001 in Presence of Efflux Pump Inhibitor (EPI), Minimum Inhibitory Concentration [4]: 0.125 µg/mL
